Columns and labels:
D(2) dopamine receptor = D(2) dopamine receptor (Rattus norvegicus, UniProt P61169); assay: Displacement of [3H]spiperone from rat D2 receptor expressed in HEK293 cells
D(3) dopamine receptor = D(3) dopamine receptor (Rattus norvegicus, UniProt P19020); assay: Displacement of [3H]spiperone from rat D3 receptor expressed in HEK293 cells
Chain of D(3) dopamine receptor (P19020 whole entry): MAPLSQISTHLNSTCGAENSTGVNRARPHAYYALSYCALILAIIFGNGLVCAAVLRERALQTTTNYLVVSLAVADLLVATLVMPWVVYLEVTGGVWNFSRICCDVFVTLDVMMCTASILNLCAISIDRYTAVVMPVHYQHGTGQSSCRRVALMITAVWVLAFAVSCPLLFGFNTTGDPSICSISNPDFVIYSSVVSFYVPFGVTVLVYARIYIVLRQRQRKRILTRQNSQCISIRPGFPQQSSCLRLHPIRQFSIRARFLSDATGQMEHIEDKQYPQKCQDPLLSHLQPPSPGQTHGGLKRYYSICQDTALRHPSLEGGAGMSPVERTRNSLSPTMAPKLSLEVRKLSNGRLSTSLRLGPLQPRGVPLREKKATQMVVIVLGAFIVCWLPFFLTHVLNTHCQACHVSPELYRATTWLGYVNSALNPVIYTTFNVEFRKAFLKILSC

Chain of D(2) dopamine receptor (P61169 whole entry): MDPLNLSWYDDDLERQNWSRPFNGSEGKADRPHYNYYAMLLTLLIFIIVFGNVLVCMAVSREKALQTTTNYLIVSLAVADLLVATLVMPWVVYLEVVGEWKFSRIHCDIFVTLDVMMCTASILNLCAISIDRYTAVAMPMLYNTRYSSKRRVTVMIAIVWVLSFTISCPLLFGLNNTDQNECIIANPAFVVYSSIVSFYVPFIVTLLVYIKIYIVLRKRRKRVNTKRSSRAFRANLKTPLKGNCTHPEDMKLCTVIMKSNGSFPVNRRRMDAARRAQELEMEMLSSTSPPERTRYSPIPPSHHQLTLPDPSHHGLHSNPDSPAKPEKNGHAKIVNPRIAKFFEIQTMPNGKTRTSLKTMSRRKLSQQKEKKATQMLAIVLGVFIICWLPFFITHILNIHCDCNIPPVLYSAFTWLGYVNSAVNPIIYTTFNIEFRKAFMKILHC

Ki (D(2) dopamine receptor): 399 nM
Ki (D(3) dopamine receptor): 16.2 nM
Compound: CCCN(CCN1CCN(c2ccc(-c3ccncc3)cc2)CC1)C1CCc2ccc(O)cc2C1 (stereo not drawn) [(+)-7-(propyl(2-(4-(4-(pyridin-4-yl)-phenyl)piperazin-1-yl)ethyl)amino)-5,6,7,8-tetrahydronaphthalen-2-ol]
